Like-named read-outs stand apart in the source and are kept apart here.
What was measured:
Assay in all cases: Cysteine liganding, probe competition
Format in all cases: binding
UniProt A0AVI4 = biological target: T1, UniProt A0AVI4 (Homo sapiens, UniProt A0AVI4)
T1 construct: 200 μL of lysate containing 5 mg/ml proteome was treated with 2 μL of 100× compound stock; endogenous in cells
T1 sequence (A0AVI4 1-362): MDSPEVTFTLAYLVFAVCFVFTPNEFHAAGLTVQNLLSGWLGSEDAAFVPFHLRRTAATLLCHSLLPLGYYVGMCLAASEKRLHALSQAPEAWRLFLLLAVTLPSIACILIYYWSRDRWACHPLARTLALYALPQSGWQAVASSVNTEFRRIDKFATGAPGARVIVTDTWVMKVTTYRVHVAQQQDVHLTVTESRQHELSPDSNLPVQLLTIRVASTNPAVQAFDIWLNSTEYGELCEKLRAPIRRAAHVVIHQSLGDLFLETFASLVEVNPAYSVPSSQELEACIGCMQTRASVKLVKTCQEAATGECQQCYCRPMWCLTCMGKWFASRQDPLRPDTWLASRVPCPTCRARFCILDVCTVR
Description: (§1) The following 96-well sample prep protocol was used for sample preparation.

UniProt Q3KNV8 = biological target: T2, UniProt Q3KNV8 (Homo sapiens, UniProt Q3KNV8)
T2 construct: Cells were resuspended in cold PBS on ice and sonicated with a probe sonicator to achieve lysis; endogenous in cells
T2 sequence (Q3KNV8 1-242): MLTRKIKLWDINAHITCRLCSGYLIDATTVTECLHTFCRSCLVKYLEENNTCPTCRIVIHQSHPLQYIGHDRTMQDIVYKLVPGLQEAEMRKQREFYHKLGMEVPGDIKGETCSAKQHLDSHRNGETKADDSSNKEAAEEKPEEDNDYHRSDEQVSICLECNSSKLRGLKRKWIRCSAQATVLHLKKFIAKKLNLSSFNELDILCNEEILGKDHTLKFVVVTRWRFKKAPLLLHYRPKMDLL
Description: as §1

UniProt Q8TE49 = biological target: T3, UniProt Q8TE49 (Homo sapiens, UniProt Q8TE49)
T3 construct: Cells were resuspended in cold PBS on ice and sonicated with a probe sonicator to achieve lysis; endogenous in cells
T3 sequence (Q8TE49 1-926): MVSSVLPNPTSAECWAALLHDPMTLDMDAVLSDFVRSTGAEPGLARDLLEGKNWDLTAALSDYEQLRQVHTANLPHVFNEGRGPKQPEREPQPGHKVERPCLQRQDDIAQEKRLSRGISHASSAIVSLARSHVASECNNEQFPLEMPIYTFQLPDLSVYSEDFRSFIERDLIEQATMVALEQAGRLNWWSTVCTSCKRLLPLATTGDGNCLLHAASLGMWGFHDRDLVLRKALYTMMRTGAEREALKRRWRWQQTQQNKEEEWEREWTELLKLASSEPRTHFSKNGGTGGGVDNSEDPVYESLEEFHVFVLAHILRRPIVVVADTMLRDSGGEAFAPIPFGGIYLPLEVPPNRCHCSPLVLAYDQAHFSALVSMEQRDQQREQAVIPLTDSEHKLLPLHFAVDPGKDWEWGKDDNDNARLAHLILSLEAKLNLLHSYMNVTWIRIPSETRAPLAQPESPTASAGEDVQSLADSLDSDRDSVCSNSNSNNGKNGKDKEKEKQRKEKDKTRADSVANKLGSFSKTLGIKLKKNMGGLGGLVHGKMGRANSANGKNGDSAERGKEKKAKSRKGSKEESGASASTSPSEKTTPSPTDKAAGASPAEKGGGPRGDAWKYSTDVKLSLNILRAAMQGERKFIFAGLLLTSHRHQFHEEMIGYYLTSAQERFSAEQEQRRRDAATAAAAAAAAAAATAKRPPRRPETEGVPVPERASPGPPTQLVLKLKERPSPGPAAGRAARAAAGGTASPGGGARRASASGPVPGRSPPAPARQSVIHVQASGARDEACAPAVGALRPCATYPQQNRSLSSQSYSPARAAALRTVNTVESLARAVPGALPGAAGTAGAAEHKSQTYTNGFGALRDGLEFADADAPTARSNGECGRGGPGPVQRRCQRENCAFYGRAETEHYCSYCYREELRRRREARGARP
Description: as §1

UniProt Q9BY78 = biological target: T4, UniProt Q9BY78 (Homo sapiens, UniProt Q9BY78); conditions: for inhibition at 500 µM: read-out: percent_inhibition
T4 construct: 200 μL of lysate containing 5 mg/ml proteome was treated with 2 μL of 100× compound stock; endogenous in cells
T4 sequence (Q9BY78 1-433): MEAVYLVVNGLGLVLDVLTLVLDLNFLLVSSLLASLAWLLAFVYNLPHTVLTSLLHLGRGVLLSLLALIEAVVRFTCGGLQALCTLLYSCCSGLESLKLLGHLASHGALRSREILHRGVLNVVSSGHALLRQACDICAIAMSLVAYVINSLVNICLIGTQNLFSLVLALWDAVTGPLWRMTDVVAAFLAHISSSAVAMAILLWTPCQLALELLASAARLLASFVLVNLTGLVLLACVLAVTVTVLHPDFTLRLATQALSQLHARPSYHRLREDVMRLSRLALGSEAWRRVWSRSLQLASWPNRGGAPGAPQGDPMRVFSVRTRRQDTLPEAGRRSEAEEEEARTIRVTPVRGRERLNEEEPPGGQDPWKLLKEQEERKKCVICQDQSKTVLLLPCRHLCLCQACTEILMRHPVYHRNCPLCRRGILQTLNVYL
Description: as §1

UniProt Q9Y252 = biological target: T5, UniProt Q9Y252 (Homo sapiens, UniProt Q9Y252); conditions: for inhibition at 500 µM: read-out: percent_inhibition
T5 construct: 200 μL of lysate containing 5 mg/ml proteome was treated with 2 μL of 100× compound stock; endogenous in cells
T5 sequence (Q9Y252 1-685): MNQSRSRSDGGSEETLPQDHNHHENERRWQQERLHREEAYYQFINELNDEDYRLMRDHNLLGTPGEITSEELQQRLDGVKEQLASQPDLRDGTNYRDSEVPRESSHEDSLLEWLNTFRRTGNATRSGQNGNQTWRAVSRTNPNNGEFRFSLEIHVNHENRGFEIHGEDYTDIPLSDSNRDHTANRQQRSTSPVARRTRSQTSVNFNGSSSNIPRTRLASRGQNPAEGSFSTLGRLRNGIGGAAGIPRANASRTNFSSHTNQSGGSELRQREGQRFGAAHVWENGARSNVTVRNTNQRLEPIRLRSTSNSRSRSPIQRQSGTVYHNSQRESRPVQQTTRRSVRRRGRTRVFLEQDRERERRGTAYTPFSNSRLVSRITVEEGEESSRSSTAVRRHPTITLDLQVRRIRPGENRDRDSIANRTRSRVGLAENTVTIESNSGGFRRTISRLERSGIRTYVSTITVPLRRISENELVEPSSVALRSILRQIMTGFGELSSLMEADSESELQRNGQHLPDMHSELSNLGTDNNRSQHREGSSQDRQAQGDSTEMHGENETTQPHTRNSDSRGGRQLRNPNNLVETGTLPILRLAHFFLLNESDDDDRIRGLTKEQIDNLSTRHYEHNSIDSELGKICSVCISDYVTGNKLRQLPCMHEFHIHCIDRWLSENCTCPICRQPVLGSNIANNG
Description: as §1

[1] = 500 uM, read-out: KB02_500 uM_percent_inhibition
[2] = 500 uM, read-out: KB05_500 uM_percent_inhibition

## COc1ccc2c(c1)CCCN2C(=O)CCl [KB02]
UniProt A0AVI4; read-out: percent_inhibition
  inhibition at 100 µM: 14%
UniProt A0AVI4; 500 uM, read-out: percent_inhibition
  inhibition at 500 µM: 44%
UniProt Q3KNV8; 100 uM, read-out: KB02_100 uM_percent_inhibition
  inhibition at 100 µM: 19%
UniProt Q3KNV8; 500 uM
  KB02_500 uM_percent_inhibition: 57%
UniProt Q3KNV8; [1]
  inhibition at 500 µM: 52%
UniProt Q8TE49; [1]
  inhibition at 500 µM: 28%
UniProt Q9BY78
  inhibition at 500 µM: 31%
UniProt Q9Y252
  inhibition at 500 µM: 38%

## C=CC(=O)N(c1ccccc1)c1ccc(Br)cc1 [KB05]
UniProt A0AVI4; read-out: percent_inhibition
  inhibition at 100 µM: 15%
UniProt Q3KNV8; 100 uM, read-out: KB05_100 uM_percent_inhibition
  inhibition at 100 µM: 14%
UniProt Q3KNV8; 500 uM
  KB05_500 uM_percent_inhibition: 50%
UniProt Q3KNV8; [2]
  inhibition at 500 µM: 58%
UniProt Q8TE49; [2]
  inhibition at 500 µM: 23%
UniProt Q9BY78
  inhibition at 500 µM: 30%
UniProt Q9Y252
  inhibition at 500 µM: 51%

## O=C(CCl)Nc1cc(C(F)(F)F)cc(C(F)(F)F)c1 [KBO3]
UniProt A0AVI4; 500 uM
  percent_inhibition: 58%
UniProt Q3KNV8; 100 uM
  KB03_100 uM_percent_inhibition: 6%
UniProt Q8TE49; 100 uM
  KB03_100 uM_percent_inhibition: 52%
UniProt Q8TE49; 500 uM
  KB03_500 uM_percent_inhibition: 56%
UniProt Q9BY78; 500 uM
  percent_inhibition: 54%
UniProt Q9Y252; 500 uM
  percent_inhibition: 9%

From patent US20200239530A1, “COMPOUNDS AND METHODS OF MODULATING PROTEIN DEGRADATION” (Vividion Therapeutics, Inc., priority 2017, published 2020)
